Laboratory results: patent publication US12060351B2, “Thiadiazole IRAK4 inhibitors” (Gilead Sciences, Inc., priority 2018, dated 2024)
Read-outs that look alike come from different tables or passages of the source.

Columns and labels:
IRAK4 enzyme = biological target: T1, IRAK4 enzyme (Homo sapiens, UniProt Q9NWZ3); assay: IRAK4 Biochemical Assay (TR-FRET, STK1 KinEASE); conditions: 500 μM ATP, Table 2 second part (compounds 33-343), read-out: IC50 IRAK4-HTBS
T1 construct: purchased Carna Biosciences, Chuo-ku, Kobe, Japan
T1 sequence (Q9NWZ3 1-460): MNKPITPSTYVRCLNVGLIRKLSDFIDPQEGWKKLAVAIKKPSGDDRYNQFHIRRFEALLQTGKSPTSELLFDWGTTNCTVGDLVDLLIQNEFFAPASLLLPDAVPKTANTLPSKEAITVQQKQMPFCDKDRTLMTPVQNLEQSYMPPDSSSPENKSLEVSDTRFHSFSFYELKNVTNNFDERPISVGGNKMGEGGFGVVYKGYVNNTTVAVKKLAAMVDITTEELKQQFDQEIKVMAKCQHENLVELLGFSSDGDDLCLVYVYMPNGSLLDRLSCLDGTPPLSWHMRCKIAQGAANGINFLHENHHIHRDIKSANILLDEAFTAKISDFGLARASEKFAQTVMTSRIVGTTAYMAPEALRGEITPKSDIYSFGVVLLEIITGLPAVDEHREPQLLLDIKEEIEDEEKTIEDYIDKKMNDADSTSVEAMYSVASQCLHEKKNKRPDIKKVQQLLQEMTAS
Protocol: IRAK4 enzyme (Carna Biosciences, Chuo-ku, Kobe, Japan) activity was measured by detecting phosphorylated peptide substrate formation using an antibody against the phosphorylated peptide substrate. This is a time-resolved fluorescence resonance energy transfer (TR-FRET) immunoassay, based on the STK1 KinEASE Assay (Cisbio, Bedford, Massachusetts). The assay was designed as a simple two-step, endpoint assay (a 5 μl enzyme reaction followed by 5 μl stop and detect Solution) performed in ProxiPlate-384 Plus plates (Perkin Elmer, Waltham, Massachusetts). […] Compounds diluted in DMSO were spotted into 384 well plates using a Labcyte® Echo 550 Liquid Handling System prior to addition of IRAK4 enzyme and peptide substrate. Reaction solutions were delivered using a Multi-Flo (Bio-Tek Instruments). The enzyme and peptide solution was incubated with compound for 15 minutes at room temp before the reaction was initiated by the addition of ATP. The standard 5 μl reaction mixture contained 500 μM ATP, 2 μM peptide (STK1 Peptide), 0.75 nM of IRAK4 in reaction buffer (50 mM HEPES, pH 7.0, 0.02% NaN3, 0.01% BSA, 0.1 mM Orthovanadate, 5 mM MgCl2, 0.025% NP-40, 1 mM DTT). After 120 min of incubation at room temperature, 5 μl of Stop and Detect Solution (1:100 Cryptate labeled anti-phosphorylated peptide antibody solution and 125 nM Tracer in a 50 mM HEPES pH 7.0 detection buffer containing sufficient EDTA) was added. The plate was then further incubated for 60 minutes at room temperature and read on Envision 2103 Multilabeled reader (PerkinElmer) with excitation/emission/FRET emission at 340 nm/615 nm/665 nm, respectively. Fluorescence intensities at 615 nm and 665 nm emission wavelengths were expressed as a ratio (665 nm/615 nm).

TNFα = assay: IRAK4 Monocyte TNFα Cell Based Assay (LPS-stimulated, TR-FRET TNFα detection); design: species or system human; conditions: Homo sapiens, Monocyte, read-out: EC50 MONO TNF HTRF
Protocol: IRAK4 Monocyte TNFα Cell Based Assay Procedure:
The cell suspension was then plated at a density of 5,000 cells/well onto black 384 well Greiner clear bottom plates. Plates were pre-spotted with test compounds and serially diluted in DMSO where 40 nL/well were delivered using the Echo 550 acoustic liquid dispenser (Labcyte®) for a final DMSO concentration of 0.1%. Plated cells were treated with compound for 1 hour at 37° C. Cells were then stimulated with 50 pg/ml of LPS (Sigma) excluding outside columns of plate used for unstimulated cell control wells. Cells were incubated for an additional 4 hours at 37° C. Cells were then spun out of the media and 5 μl of sample were taken and analyzed for total TNFα content using the TR-FRET Human TNFα detection system (CisBio). This system utilizes two labeled antibodies (cryptate and XL665) that bind to two different epitopes of the TNFα molecule and produce FRET signal proportional to the concentration of TNFα in the sample. Detection antibodies are mixed 50:50 and 5 μL were dispensed into each well. Plates were covered with clear seals and incubated at room temp overnight. […] Percent of control was calculated as follows: % Control=100×(RatioSample−Ratio0% Stimulation)/(Ratio100% Stimulation−Ratio0% Stimulation) where unstimulated cells (0% stimulation) were the negative control and stimulated cells (100% stimulation) were used as the positive control.

[1] = human monocytes, LPS-stimulated, Table 2 second part (compounds 33-343)

IC50 (IRAK4 enzyme) | EC50 (TNFα; [1]) | SMILES | EC50 (TNFα)
0.2 nM | 6.7 nM | CNc1cc(-c2ccc3cc(C#N)cnn23)ncc1-c1nnc(N2C[C@H]3CC[C@@H](C2)[C@@H]3NC(C)=O)s1 [Compound 292, N-((1R,5S,8s)-3-(5-(6-(3-cyanopyrrolo[1,2-b]pyridazin-7-yl)-4-(methylamino)pyridin-3-yl)-1,3,4-thiadiazol-2-yl)-3-azabicyclo[3.2.1]octan-8-yl)acetamide] | –
0.98 nM | 5.3 nM | CC(=O)N(C)[C@@H]1[C@@H]2CC[C@H]1CN(c1nnc(-c3cnc(-c4ccc5cc(C#N)cnn45)cc3NC(C)C)s1)C2 [Compound 300, N-((1R,5S,8s)-3-(5-(6-(3-cyanopyrrolo[1,2-b]pyridazin-7-yl)-4-(isopropylamino)pyridin-3-yl)-1,3,4-thiadiazol-2-yl)-3-azabicyclo[3.2.1]octan-8-yl)-N-methylacetamide] | –
1.04 nM | 4.9 nM | CC(C)Nc1cc(-c2ccc3cc(C#N)cnn23)ncc1-c1nnc(N2C[C@H]3CC[C@@H](C2)[C@@H]3N2CCOC2=O)s1 [Compound 301, 7-(4-(isopropylamino)-5-(5-((1R,5S,8s)-8-(2-oxooxazolidin-3-yl)-3-azabicyclo[3.2.1]octan-3-yl)-1,3,4-thiadiazol-2-yl)pyridin-2-yl)pyrrolo[1,2-b]pyridazine-3-carbonitrile] | –
1.85 nM | 18.4 nM | CC(C)Nc1cc(-c2ccc3cc(C#N)cnn23)ncc1-c1nnc(N2C[C@H]3CC[C@@H](C2)[C@@H]3Nc2ncccn2)s1 [Compound 308, 7-(4-(isopropylamino)-5-(5-((1R,5S,8s)-8-(pyrimidin-2-ylamino)-3-azabicyclo[3.2.1]octan-3-yl)-1,3,4-thiadiazol-2-yl)pyridin-2-yl)pyrrolo[1,2-b]pyridazine-3-carbonitrile] | –
29.4 nM | 687 nM | CC(C)Nc1cc(-c2ccc3cc(C#N)cnn23)ncc1-c1nnc(N2C[C@H]3CC[C@@H](C2)[C@@H]3Nc2ncccc2F)s1 [Compound 309, 7-(5-(5-((1R,5S,8s)-8-((3-fluoropyridin-2-yl)amino)-3-azabicyclo[3.2.1]octan-3-yl)-1,3,4-thiadiazol-2-yl)-4-(isopropylamino)pyridin-2-yl)pyrrolo[1,2-b]pyridazine-3-carbonitrile] | –
0.8 nM | 22.6 nM | CC(C)(O)C(=O)N[C@H]1CC[C@@H](c2nnc(-c3cnc(-c4ccc5cc(C#N)cnn45)cc3NC3COC3)s2)CC1 [Compound 311, N-((1s,4s)-4-(5-(6-(3-cyanopyrrolo[1,2-b]pyridazin-7-yl)-4-(oxetan-3-ylamino)pyridin-3-yl)-1,3,4-thiadiazol-2-yl)cyclohexyl)-2-hydroxy-2-methylpropanamide] | –
0.91 nM | 17.5 nM | CC(C)Nc1cc(-c2ccc3cc(C#N)cnn23)ncc1-c1nnc([C@H]2CC[C@@H](NC(=O)C(C)(C)O)CC2)s1 [Compound 312, N-((1s,4s)-4-(5-(6-(3-cyanopyrrolo[1,2-b]pyridazin-7-yl)-4-(isopropylamino)pyridin-3-yl)-1,3,4-thiadiazol-2-yl)cyclohexyl)-2-hydroxy-2-methylpropanamide] | –
0.55 nM | 4.9 nM | COC(=O)N[C@H]1CC[C@H](Nc2cc(-c3ccc4cc(C#N)cnn34)ncc2-c2nnc([C@H]3CC[C@H](NC(C)=O)CC3)s2)CC1 [Example 34, methyl ((1R,4r)-4-((5-(5-((1r,4R)-4-acetamidocyclohexyl)-1,3,4-thiadiazol-2-yl)-2-(3-cyanopyrrolo[1,2-b]pyridazin-7-yl)pyridin-4-yl)amino)cyclohexyl)carbamate] | –
0.8 nM | 3.5 nM | CC(=O)N[C@@H]1[C@@H]2CC[C@H]1CN(c1nnc(-c3cnc(-c4ccc5cc(C#N)cnn45)cc3NC(C)C)s1)C2 [Example 38, N-((1R,5S,8s)-3-(5-(6-(3-cyanopyrrolo[1,2-b]pyridazin-7-yl)-4-(isopropylamino)pyridin-3-yl)-1,3,4-thiadiazol-2-yl)-3-azabicyclo[3.2.1]octan-8-yl)acetamide] | –
0.89 nM | 10.4 nM | CC(=O)N[C@H]1[C@@H]2CC[C@H]1CN(c1nnc(-c3cnc(-c4ccc5cc(C#N)cnn45)cc3NC(C)C)s1)C2 [Example 39, N-((1R,5S,8r)-3-(5-(6-(3-cyanopyrrolo[1,2-b]pyridazin-7-yl)-4-(isopropylamino)pyridin-3-yl)-1,3,4-thiadiazol-2-yl)-3-azabicyclo[3.2.1]octan-8-yl)acetamide] | –
1.73 nM | 4.7 nM | COC(=O)NC[C@H]1C[C@H](Nc2cc(-c3ccc4cc(C#N)cnn34)ncc2-c2nnc(N3CCN4CCOC[C@H]4C3)s2)C1 [Example 51, methyl (((1R,3r)-3-((2-(3-cyanopyrrolo[1,2-b]pyridazin-7-yl)-5-(5-((R)-hexahydropyrazino[2,1-c][1,4]oxazin-8(1H)-yl)-1,3,4-thiadiazol-2-yl)pyridin-4-yl)amino)cyclobutyl)methyl)carbamate] | –
0.82 nM | 4.1 nM | COC(=O)NC[C@H]1C[C@H](Nc2cc(-c3ccc4cc(C#N)cnn34)ncc2-c2nnc(N3C[C@H]4CC[C@@H](C3)[C@@H]4NC(C)=O)s2)C1 [Example 52, methyl (((1R,3r)-3-((5-(5-((1R,5S,8S)-8-acetamido-3-azabicyclo[3.2.1]octan-3-yl)-1,3,4-thiadiazol-2-yl)-2-(3-cyanopyrrolo[1,2-b]pyridazin-7-yl)pyridin-4-yl)amino)cyclobutyl)methyl)carbamate] | –
0.73 nM | 2.4 nM | COC(=O)N[C@H]1CC[C@H](Nc2cc(-c3ccc4cc(C#N)cnn34)ncc2-c2nnc(N3C[C@H]4CC[C@@H](C3)[C@@H]4NC(C)=O)s2)CC1 [Example 54, methyl ((1R,4r)-4-((5-(5-((1R,5S,8S)-8-acetamido-3-azabicyclo[3.2.1]octan-3-yl)-1,3,4-thiadiazol-2-yl)-2-(3-cyanopyrrolo[1,2-b]pyridazin-7-yl)pyridin-4-yl)amino)cyclohexyl)carbamate] | –

SMILES | IC50 (IRAK4 enzyme) | EC50 (TNFα; [1]) | EC50 (TNFα)
CC(C)Nc1cc(-c2ccc3cc(C#N)cnn23)ncc1-c1nnc(NCC(C)(C)O)s1 [Example 37, 7-(5-(5-((2-hydroxy-2-methylpropyl)amino)-1,3,4-thiadiazol-2-yl)-4-(isopropylamino)pyridin-2-yl)pyrrolo[1,2-b]pyridazine-3-carbonitrile] | ≥ 1000 nM | ≥ 10000 nM | –
CC(=O)N[C@H]1[C@@H]2C[C@H]1CN(c1nnc(-c3cnc(-c4ccc5cc(C#N)cnn45)cc3NC(C)C)s1)C2 [Example 45, N-((1R,5S,6r)-3-(5-(6-(3-cyanopyrrolo[1,2-b]pyridazin-7-yl)-4-(isopropylamino)pyridin-3-yl)-1,3,4-thiadiazol-2-yl)-3-azabicyclo[3.1.1]heptan-6-yl)acetamide] | 1.13 nM | – | 11.8 nM
CC(=O)N[C@H]1C[C@H]2CC[C@@H](C1)N2c1nnc(-c2cnc(-c3ccc4cc(C#N)cnn34)cc2NC(C)C)s1 [Example 55, N-((1R,3r,5S)-8-(5-(6-(3-cyanopyrrolo[1,2-b]pyridazin-7-yl)-4-(isopropylamino)pyridin-3-yl)-1,3,4-thiadiazol-2-yl)-8-azabicyclo[3.2.1]octan-3-yl)acetamide] | 0.54 nM | – | 115 nM
